Measured values as given in the kinase profiling compilation of Christmann-Franck et al. (2016).

Tests used:
Test in all cases: radiometric filter-binding kinase assay, Kinaseprofiler
FYN (human) = FYN (human) (UniProt P06241); details: compound 1.0 µM; ATP 70 µM
PKN2 (human) = PKN2 (human) (UniProt Q16513); details: compound 1.0 µM; ATP 15 µM
MAPKAPK3 (human) = MAPKAPK3 (human) (UniProt Q16644); details: compound 1.0 µM; ATP 90 µM
[1] = tested on: RPS6KB1 (human), P23443 [T412E]; details: compound 1.0 µM; ATP 15 µM
[2] = tested on: ABL1 (human), P00519 [T315I]; details: compound 1.0 µM; ATP 10 µM
PRKCI (human) = PRKCI (human) (UniProt P41743); details: compound 1.0 µM; ATP 155 µM
CHUK (human) = CHUK (human) (UniProt O15111); details: compound 1.0 µM; ATP 10 µM
PLK2 (human) = PLK2 (human) (UniProt Q9NYY3); details: compound 1.0 µM; ATP 120 µM
[3] = tested on: RAF1 (human), P04049 [Y340D/Y341D]; details: compound 1.0 µM; ATP 45 µM
ROCK1 (human) = ROCK1 (human) (UniProt Q13464); details: compound 1.0 µM; ATP 70 µM
Sequence of ROCK1 (human) (Q13464 whole entry, looked up): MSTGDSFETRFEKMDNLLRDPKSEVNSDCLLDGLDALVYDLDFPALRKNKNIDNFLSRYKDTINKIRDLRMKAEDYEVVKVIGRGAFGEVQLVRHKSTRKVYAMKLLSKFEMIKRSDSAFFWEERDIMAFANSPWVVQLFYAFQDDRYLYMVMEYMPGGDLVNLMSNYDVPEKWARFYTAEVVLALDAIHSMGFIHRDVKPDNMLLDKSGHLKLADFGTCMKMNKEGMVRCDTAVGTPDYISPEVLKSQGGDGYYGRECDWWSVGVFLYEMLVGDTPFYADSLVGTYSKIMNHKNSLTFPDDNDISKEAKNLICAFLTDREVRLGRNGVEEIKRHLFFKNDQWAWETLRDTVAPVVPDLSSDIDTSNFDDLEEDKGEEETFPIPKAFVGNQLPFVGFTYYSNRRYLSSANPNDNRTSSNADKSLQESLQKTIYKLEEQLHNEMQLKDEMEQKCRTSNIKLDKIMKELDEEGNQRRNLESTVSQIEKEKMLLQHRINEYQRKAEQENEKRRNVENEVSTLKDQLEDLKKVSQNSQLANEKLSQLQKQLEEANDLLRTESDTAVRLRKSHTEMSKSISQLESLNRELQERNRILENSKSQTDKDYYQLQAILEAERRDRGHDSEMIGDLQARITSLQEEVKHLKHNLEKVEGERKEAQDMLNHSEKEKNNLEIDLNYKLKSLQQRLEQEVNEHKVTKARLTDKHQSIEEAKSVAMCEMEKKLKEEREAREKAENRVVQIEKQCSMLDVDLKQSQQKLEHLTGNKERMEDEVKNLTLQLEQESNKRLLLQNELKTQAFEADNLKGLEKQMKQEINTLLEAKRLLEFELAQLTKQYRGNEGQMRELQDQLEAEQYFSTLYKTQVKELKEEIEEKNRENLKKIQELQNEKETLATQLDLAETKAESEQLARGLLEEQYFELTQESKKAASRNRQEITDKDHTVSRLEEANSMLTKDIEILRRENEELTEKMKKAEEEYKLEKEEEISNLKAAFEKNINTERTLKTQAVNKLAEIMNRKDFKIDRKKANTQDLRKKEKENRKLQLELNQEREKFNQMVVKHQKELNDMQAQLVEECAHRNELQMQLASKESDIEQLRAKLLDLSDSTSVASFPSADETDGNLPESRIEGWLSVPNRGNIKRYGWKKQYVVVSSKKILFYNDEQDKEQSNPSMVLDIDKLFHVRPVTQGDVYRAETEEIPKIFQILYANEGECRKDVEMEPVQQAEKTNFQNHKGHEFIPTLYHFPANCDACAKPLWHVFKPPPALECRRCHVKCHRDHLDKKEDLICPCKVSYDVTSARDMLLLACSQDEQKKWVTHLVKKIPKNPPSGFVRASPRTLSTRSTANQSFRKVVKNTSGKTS

CHEK2 (human) = CHEK2 (human) (UniProt O96017); details: compound 1.0 µM; ATP 70 µM
MAPK12 (human) = MAPK12 (human) (UniProt P53778); details: compound 1.0 µM; ATP 15 µM
NEK6 (human) = NEK6 (human) (UniProt Q9HC98); details: compound 1.0 µM; ATP 45 µM
Sequence of NEK6 (human) (Q9HC98 whole entry, looked up): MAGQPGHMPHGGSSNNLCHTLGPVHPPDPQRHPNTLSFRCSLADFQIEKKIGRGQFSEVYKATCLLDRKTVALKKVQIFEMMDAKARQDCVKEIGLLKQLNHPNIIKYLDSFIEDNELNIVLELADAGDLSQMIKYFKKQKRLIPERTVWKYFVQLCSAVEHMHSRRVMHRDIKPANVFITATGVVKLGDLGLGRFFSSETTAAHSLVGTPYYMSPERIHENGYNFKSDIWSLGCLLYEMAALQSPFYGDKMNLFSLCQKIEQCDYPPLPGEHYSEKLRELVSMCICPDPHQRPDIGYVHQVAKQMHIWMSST

CSNK1D (human) = CSNK1D (human) (UniProt P48730); details: compound 1.0 µM; ATP 70 µM
Sequence of CSNK1D (human) (P48730 whole entry, looked up): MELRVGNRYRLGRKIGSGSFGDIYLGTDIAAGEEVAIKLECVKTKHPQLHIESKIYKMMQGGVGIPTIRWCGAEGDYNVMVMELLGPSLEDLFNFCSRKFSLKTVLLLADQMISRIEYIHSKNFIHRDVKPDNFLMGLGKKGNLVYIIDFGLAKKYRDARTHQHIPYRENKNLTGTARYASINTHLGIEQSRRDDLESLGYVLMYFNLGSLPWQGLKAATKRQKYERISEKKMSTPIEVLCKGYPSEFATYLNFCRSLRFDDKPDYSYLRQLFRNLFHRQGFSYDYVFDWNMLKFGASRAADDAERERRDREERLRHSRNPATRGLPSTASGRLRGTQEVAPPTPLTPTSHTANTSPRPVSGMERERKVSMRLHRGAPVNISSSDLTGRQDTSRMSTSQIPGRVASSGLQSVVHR

CSK (human) = CSK (human) (UniProt P41240); details: compound 1.0 µM; ATP 15 µM
CDK9 CCNT1 (human) = CDK9 CCNT1 (human) (UniProt P50750+O60563); details: compound 1.0 µM; ATP 45 µM
[4] = tested on: MARK1 (human), Q9P0L2 [V16E/T20S]; details: compound 1.0 µM; ATP 10 µM
INSRR (human) = INSRR (human) (UniProt P14616); details: compound 1.0 µM; ATP 200 µM
SIK1 (human) = SIK1 (human) (UniProt P57059); details: compound 1.0 µM; ATP 45 µM
[5] = tested on: IRAK4 (human), Q9NWZ3 [A81V]; details: compound 1.0 µM; ATP 200 µM
NEK11 (human) = NEK11 (human) (UniProt Q8NG66); details: compound 1.0 µM; ATP 200 µM
INSR (human) = INSR (human) (UniProt P06213); details: compound 1.0 µM; ATP 200 µM
NTRK2 (human) = NTRK2 (human) (UniProt Q16620); details: compound 1.0 µM; ATP 90 µM
EPHB3 (human) = EPHB3 (human) (UniProt P54753); details: compound 1.0 µM; ATP 90 µM
PRKCZ (human) = PRKCZ (human) (UniProt Q05513); details: compound 1.0 µM; ATP 15 µM
[6] = tested on: TEK (human), Q02763 [Q939H/Q940H]; details: compound 1.0 µM; ATP 200 µM
FGFR2 (human) = FGFR2 (human) (UniProt P21802); details: compound 1.0 µM; ATP 90 µM
FGR (human) = FGR (human) (UniProt P09769); details: compound 1.0 µM; ATP 45 µM
PRKD1 (human) = PRKD1 (human) (UniProt Q15139); details: compound 1.0 µM; ATP 45 µM
CDK6 CCND3 (human) = CDK6 CCND3 (human) (UniProt P30281+Q00534); details: compound 1.0 µM; ATP 200 µM
Sequence of CDK6 CCND3 (human) (P30281 whole entry, looked up): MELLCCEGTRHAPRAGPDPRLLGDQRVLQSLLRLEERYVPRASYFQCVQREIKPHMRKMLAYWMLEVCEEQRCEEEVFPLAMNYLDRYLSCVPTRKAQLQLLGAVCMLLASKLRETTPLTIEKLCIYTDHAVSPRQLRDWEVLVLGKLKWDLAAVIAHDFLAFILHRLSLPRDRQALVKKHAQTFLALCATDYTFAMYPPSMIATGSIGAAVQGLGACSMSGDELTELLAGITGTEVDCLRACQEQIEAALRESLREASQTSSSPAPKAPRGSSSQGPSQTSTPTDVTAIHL
Sequence of CDK6 CCND3 (human) (Q00534 whole entry, looked up): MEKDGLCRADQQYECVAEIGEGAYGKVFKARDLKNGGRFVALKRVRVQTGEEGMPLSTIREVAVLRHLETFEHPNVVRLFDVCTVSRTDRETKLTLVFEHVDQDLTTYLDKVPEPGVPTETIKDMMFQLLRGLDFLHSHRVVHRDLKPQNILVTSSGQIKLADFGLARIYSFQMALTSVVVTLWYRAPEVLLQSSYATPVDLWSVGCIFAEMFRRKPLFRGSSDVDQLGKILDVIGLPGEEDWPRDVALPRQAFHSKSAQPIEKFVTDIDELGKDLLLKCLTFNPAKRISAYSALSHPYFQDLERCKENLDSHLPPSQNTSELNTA

NTRK1 (human) = NTRK1 (human) (UniProt P04629); details: compound 1.0 µM; ATP 120 µM
[7] = biological target: CSNK2A1 CSNK2B CSNK2A2 (human) (UniProt P19784+P68400+P67870); details: compound 1.0 µM; ATP 15 µM
CAMK4 (human) = CAMK4 (human) (UniProt Q16566); details: compound 1.0 µM; ATP 10 µM
Sequence of CAMK4 (human) (Q16566 whole entry, looked up): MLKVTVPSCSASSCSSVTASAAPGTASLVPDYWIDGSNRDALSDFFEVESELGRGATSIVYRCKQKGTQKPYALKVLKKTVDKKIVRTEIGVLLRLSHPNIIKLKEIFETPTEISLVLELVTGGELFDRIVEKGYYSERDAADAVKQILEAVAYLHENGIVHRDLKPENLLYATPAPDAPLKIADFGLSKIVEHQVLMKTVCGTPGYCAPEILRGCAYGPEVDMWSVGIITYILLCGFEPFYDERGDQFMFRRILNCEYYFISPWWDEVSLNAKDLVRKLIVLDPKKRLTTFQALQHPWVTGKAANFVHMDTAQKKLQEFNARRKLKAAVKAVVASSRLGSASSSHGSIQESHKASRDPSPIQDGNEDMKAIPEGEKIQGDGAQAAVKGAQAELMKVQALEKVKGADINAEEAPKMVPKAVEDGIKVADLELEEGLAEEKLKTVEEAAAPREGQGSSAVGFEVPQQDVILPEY

PAK6 (human) = PAK6 (human) (UniProt Q9NQU5); details: compound 1.0 µM; ATP 10 µM
FGFR3 (human) = FGFR3 (human) (UniProt P22607); details: compound 1.0 µM; ATP 15 µM
PIM1 (human) = PIM1 (human) (UniProt P11309); details: compound 1.0 µM; ATP 90 µM
Sequence of PIM1 (human) (P11309 whole entry, looked up): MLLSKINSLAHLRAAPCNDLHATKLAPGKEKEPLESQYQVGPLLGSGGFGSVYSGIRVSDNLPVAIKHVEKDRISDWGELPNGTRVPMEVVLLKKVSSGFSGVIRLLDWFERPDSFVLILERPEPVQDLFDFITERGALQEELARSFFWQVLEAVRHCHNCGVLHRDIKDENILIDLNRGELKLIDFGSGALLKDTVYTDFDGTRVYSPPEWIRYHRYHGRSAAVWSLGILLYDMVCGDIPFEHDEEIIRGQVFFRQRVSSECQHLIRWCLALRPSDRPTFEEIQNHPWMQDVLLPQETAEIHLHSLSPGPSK

DAPK1 (human) = DAPK1 (human) (UniProt P53355); details: compound 1.0 µM; ATP 70 µM
EPHB1 (human) = EPHB1 (human) (UniProt P54762); details: compound 1.0 µM; ATP 200 µM

Sequence of MAPKAPK3 (human) (Q16644 whole entry, looked up): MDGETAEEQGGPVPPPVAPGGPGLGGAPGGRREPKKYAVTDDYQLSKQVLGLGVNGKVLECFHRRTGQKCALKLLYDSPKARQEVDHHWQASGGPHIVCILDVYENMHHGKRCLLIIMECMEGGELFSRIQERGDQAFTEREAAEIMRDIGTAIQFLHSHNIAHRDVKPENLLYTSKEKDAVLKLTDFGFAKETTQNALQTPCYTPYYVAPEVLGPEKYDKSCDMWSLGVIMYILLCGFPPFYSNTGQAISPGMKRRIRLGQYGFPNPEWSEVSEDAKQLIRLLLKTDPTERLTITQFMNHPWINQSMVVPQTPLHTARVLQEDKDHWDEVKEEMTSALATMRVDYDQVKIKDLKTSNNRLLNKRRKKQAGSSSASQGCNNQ
Sequence of PKN2 (human) (Q16513 whole entry, looked up): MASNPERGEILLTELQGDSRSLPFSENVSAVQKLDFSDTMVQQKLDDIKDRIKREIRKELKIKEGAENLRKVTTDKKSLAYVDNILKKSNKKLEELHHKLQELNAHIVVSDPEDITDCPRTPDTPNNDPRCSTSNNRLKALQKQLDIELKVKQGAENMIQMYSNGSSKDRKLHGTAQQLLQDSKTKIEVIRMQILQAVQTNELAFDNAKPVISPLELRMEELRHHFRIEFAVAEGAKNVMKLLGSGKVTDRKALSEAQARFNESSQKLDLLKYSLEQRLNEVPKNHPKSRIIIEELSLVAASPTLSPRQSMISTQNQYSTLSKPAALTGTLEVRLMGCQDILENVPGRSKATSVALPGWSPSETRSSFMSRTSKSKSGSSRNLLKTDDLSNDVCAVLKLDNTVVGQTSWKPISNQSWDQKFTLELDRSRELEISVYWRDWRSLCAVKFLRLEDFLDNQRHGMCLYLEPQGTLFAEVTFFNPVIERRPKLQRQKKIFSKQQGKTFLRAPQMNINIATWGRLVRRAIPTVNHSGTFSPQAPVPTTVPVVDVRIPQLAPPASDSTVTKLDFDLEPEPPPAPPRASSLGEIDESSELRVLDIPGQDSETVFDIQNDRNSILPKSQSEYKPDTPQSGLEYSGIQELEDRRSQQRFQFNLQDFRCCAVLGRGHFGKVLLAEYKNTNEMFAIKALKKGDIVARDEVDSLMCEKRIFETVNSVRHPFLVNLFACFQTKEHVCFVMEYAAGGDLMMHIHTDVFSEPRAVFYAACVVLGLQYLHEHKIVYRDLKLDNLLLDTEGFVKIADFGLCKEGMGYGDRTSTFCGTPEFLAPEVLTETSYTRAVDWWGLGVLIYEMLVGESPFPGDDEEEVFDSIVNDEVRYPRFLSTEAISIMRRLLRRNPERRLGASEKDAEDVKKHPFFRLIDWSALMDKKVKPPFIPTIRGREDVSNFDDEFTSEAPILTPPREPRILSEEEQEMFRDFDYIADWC

residual activity (FYN (human)): 64%
residual activity (PKN2 (human)): 92%
residual activity (MAPKAPK3 (human)): 102%
residual activity [1]: 81%
residual activity [2]: 35%
residual activity (PRKCI (human)): 108%
residual activity (CHUK (human)): 98%
residual activity (PLK2 (human)): 58%
residual activity [3]: 72%
residual activity (ROCK1 (human)): 107%
residual activity (CHEK2 (human)): 93%
residual activity (MAPK12 (human)): 103%
residual activity (NEK6 (human)): 93%
residual activity (CSNK1D (human)): 98%
residual activity (CSK (human)): 85%
residual activity (CDK9 CCNT1 (human)): 107%
residual activity [4]: 62%
residual activity (INSRR (human)): 103%
residual activity (SIK1 (human)): 87%
residual activity [5]: 14%
residual activity (NEK11 (human)): 118%
residual activity (INSR (human)): 109%
residual activity (NTRK2 (human)): 15%
residual activity (EPHB3 (human)): 98%
residual activity (PRKCZ (human)): 95%
residual activity [6]: 66%
residual activity (FGFR2 (human)): 12%
residual activity (FGR (human)): 90%
residual activity (PRKD1 (human)): 93%
residual activity (CDK6 CCND3 (human)): 108%
residual activity (NTRK1 (human)): 1%
residual activity [7]: 117%
residual activity (CAMK4 (human)): 98%
residual activity (PAK6 (human)): 109%
residual activity (FGFR3 (human)): 4%
residual activity (PIM1 (human)): 101%
residual activity (DAPK1 (human)): 90%
residual activity (EPHB1 (human)): 67%
Compound: CN(C)S(=O)(=O)Nc1ccc2ccc3ncc(-c4cnn(C)c4)cc3c(=O)c2c1
